Literature values, collected in patent publication US20020160947A1, “Synergistic method for prolonging allograft survival” (Millennium Pharmaceuticals, Inc., priority 2001, published 2002).

Tested on: activated T-cells
Conditions: activated versus resting T cells

CC(=O)N[C@@H](CSC(=O)[C@]1([C@@H](O)C(C)C)NC(=O)[C@H](C)[C@@H]1O)C(=O)O [lactacystin]
induction of apoptosis of T cells: induction of apoptosis of activated T-cells, but not resting T cells
